Test results as given in patent publication US8952024B2, “Herbicidal pyrimidone derivatives” (E I du Pont de Nemours and Company, priority 2009, dated 2015).

Columns and labels:
Assay type in all cases: in vivo
[1] = tested on: barnyardgrass (Echinochloa crus-galli); assay: Test A pre-/postemergence plant response
Text: (§1) Seeds of barnyardgrass (Echinochloa crus-galli), large crabgrass (Digitaria sanguinalis), giant foxtail (Setaria faberii), morningglory (Ipomoea spp.), pigweed (Amaranthus retroflexus), velvetleaf (Abutilon theophrasti), wheat (Triticum aestivum) and corn (Zea mays) were planted into a blend of loam soil and sand and treated preemergence with a directed soil spray using test chemicals formulated in a non-phytotoxic solvent mixture which included a surfactant. At the same time these species were also treated with postemergence applications of test compounds formulated in the same manner.
(§2) Plants ranged in height from two to ten cm and were in the one- to two-leaf stage for the postemergence treatment. Treated plants and untreated controls were maintained in a greenhouse for approximately ten days, after which time all treated plants were compared to untreated controls and visually evaluated for injury. Plant response ratings, summarized in Table A, are based on a 0 to 100 scale where 0 is no effect and 100 is complete control. A dash (-) response means no test result.

corn (Zea mays) = assay: Test A pre-/postemergence plant response
Text: as §1, §2

[2] = tested on: giant foxtail (Setaria faberii); assay: Test A pre-/postemergence plant response
Text: as §1, §2

[3] = tested on: large crabgrass (Digitaria sanguinalis); assay: Test A pre-/postemergence plant response
Text: as §1, §2

[4] = tested on: morningglory (Ipomoea spp.); assay: Test A pre-/postemergence plant response
Text: as §1, §2

[5] = tested on: pigweed (Amaranthus retroflexus); assay: Test A pre-/postemergence plant response
Text: as §1, §2

[6] = tested on: velvetleaf (Abutilon theophrasti); assay: Test A pre-/postemergence plant response
Text: as §1, §2

[7] = tested on: wheat (Triticum aestivum); assay: Test A pre-/postemergence plant response
Text: as §1, §2

[8] = tested on: barnyardgrass (Echinochloa crus-galli); assay: Test B flooded paddy test; conditions: for Plant response rating, Flood, Barnyardgrass: 250 g ai/ha, flooded paddy test, visual rating on 0 to 100 scale (0 no effect, 100 complete control) after 13 to 15 days; for Plant response rating, Barnyardgrass: Flood (flooded paddy test), 13 to 15 days
Text: (§3) Plant species in the flooded paddy test consisted of rice (Oryza sativa), umbrella sedge (Cyperus difformis), ducksalad (Heteranthera limosa) and barnyardgrass (Echinochloa crus-galli) grown to the 2-leaf stage for testing. At the time of treatment, test pots were flooded with water to 3 cm above the soil surface, treated by application of test compounds directly to the paddy water, and then maintained at that water depth for the duration of the test.
(§4) Treated plants and controls were maintained in a greenhouse for 13 to 15 days, after which time all treated plants were visually evaluated and compared to controls. Plant response ratings, summarized in Table B, are based on a scale of 0 to 100 where 0 is no effect and 100 is complete control. A dash (-) response means no test result.

[9] = tested on: ducksalad (Heteranthera limosa); assay: Test B flooded paddy test; conditions: for Plant response rating, Flood, Ducksalad: 250 g ai/ha, flooded paddy test, visual rating on 0 to 100 scale (0 no effect, 100 complete control) after 13 to 15 days; for Plant response rating, Ducksalad: Flood (flooded paddy test), 13 to 15 days
Text: as §3, §4

rice (Oryza sativa) = assay: Test B flooded paddy test; conditions: for Plant response rating, Flood, Rice: 250 g ai/ha, flooded paddy test, visual rating on 0 to 100 scale (0 no effect, 100 complete control) after 13 to 15 days; for Plant response rating, Rice: Flood (flooded paddy test), 13 to 15 days
Text: as §3, §4

[10] = tested on: umbrella sedge (Cyperus difformis); assay: Test B flooded paddy test; conditions: for Plant response rating, Flood, Sedge, Umbrella: 250 g ai/ha, flooded paddy test, visual rating on 0 to 100 scale (0 no effect, 100 complete control) after 13 to 15 days; for Plant response rating, Sedge, Umbrella: Flood (flooded paddy test), 13 to 15 days
Text: as §3, §4

[11] = Postemergence, 125 g ai/ha, 0 to 100 scale where 0 is no effect and 100 is complete control
[12] = Postemergence, 500 g ai/ha, visual injury, 0 to 100 scale (0 no effect, 100 complete control), approx. ten days
[13] = Preemergence, 125 g ai/ha, 0 to 100 scale, 0 = no effect, 100 = complete control
[14] = Preemergence, 500 g ai/ha, 0 to 100 scale, 0 = no effect, 100 = complete control
[15] = 62 g ai/ha, scale of 0 to 100 where 0 is no effect and 100 is complete control
[16] = 125 g ai/ha, scale 0 to 100, 0 is no effect, 100 is complete control
[17] = Flood, 31 g ai/ha, scale 0 to 100 (0 no effect, 100 complete control)
[18] = Postemergence, 500 g ai/ha, 0 to 100 scale, 0 = no effect, 100 = complete control, approx. ten days
[19] = Preemergence, 500 g ai/ha, visual injury, 0 to 100 scale (0 no effect, 100 complete control), approx. ten days
[20] = Postemergence, 125 g ai/ha, visual injury, 0 to 100 scale (0 no effect, 100 complete control), approx. ten days
[21] = 62 g ai/ha, scale 0 to 100, 0 is no effect, 100 is complete control

Compound: CCc1ccc(-n2c(-c3cccc(C)c3)ncc(C(=O)C3=C(O)CCCC3=O)c2=O)cc1 [Compound 213]
- Plant response rating, Barnyardgrass [1, 11]: 20
- Barnyardgrass plant response rating [1, 12]: 100
- Plant response rating, Barnyardgrass [1, 13]: 0
- Plant response rating, Barnyardgrass [1, 14]: 30
- Plant response rating, Corn (corn (Zea mays); [11]): 0
- Corn plant response rating (corn (Zea mays); [12]): 20
- Plant response rating, Corn (corn (Zea mays); [13]): 0
- Plant response rating, Corn (corn (Zea mays); [14]): 0
- Plant response rating, Foxtail, Giant [2, 11]: 10
- Foxtail, Giant plant response rating [2, 12]: 40
- Plant response rating, Foxtail, Giant [2, 13]: 10
- Plant response rating, Foxtail, Giant [2, 14]: 30
- Plant response rating, Crabgrass, Large [3, 11]: 20
- Crabgrass, Large plant response rating [3, 12]: 50
- Plant response rating, Crabgrass, Large [3, 13]: 0
- Plant response rating, Crabgrass, Large [3, 14]: 50
- Plant response rating, Morningglory [4, 11]: 60
- Morningglory plant response rating [4, 12]: 100
- Plant response rating, Morningglory [4, 14]: 60
- Plant response rating, Pigweed [5, 11]: 80
- Pigweed plant response rating [5, 12]: 100
- Plant response rating, Pigweed [5, 13]: 50
- Plant response rating, Pigweed [5, 14]: 90
- Plant response rating, Velvetleaf [6, 11]: 70
- Velvetleaf plant response rating [6, 12]: 60
- Plant response rating, Velvetleaf [6, 13]: 40
- Plant response rating, Velvetleaf [6, 14]: 60
- Plant response rating, Wheat [7, 11]: 0
- Wheat plant response rating [7, 12]: 0
- Plant response rating, Wheat [7, 13]: 0
- Plant response rating, Wheat [7, 14]: 0
- Plant response rating, Flood, Barnyardgrass [8]: 30
- Plant response rating, Barnyardgrass [8, 15]: 0
- Plant response rating, Barnyardgrass [8, 16]: 0
- Barnyardgrass plant response rating [8, 17]: 0
- Plant response rating, Flood, Ducksalad [9]: 100
- Plant response rating, Ducksalad [9, 15]: 85
- Plant response rating, Ducksalad [9, 16]: 90
- Ducksalad plant response rating [9, 17]: 75
- Plant response rating, Flood, Rice (rice (Oryza sativa)): 20
- Plant response rating, Rice (rice (Oryza sativa); [15]): 0
- Plant response rating, Rice (rice (Oryza sativa); [16]): 0
- Rice plant response rating (rice (Oryza sativa); [17]): 0
- Plant response rating, Flood, Sedge, Umbrella [10]: 90
- Plant response rating, Sedge, Umbrella [10, 15]: 80
- Plant response rating, Sedge, Umbrella [10, 16]: 85
- Sedge, Umbrella plant response rating [10, 17]: 65

Compound: COCCn1c(-c2ccn(C)n2)ncc(C(=O)C2=C(O)CCCC2=O)c1=O [Compound 136]
- Plant response rating, Barnyardgrass [1, 11]: 30
- Plant response rating, Barnyardgrass [1, 18]: 80
- Plant response rating, Barnyardgrass [1, 13]: 0
- Plant response rating, Barnyardgrass [1, 19]: 60
- Plant response rating, Corn (corn (Zea mays); [11]): 0
- Plant response rating, Corn (corn (Zea mays); [18]): 0
- Plant response rating, Corn (corn (Zea mays); [13]): 0
- Plant response rating, Corn (corn (Zea mays); [19]): 0
- Plant response rating, Foxtail, Giant [2, 11]: 30
- Plant response rating, Foxtail, Giant [2, 18]: 50
- Plant response rating, Foxtail, Giant [2, 13]: 0
- Plant response rating, Foxtail, Giant [2, 19]: 0
- Plant response rating, Crabgrass, Large [3, 11]: 80
- Plant response rating, Crabgrass, Large [3, 18]: 90
- Plant response rating, Crabgrass, Large [3, 13]: 20
- Plant response rating, Crabgrass, Large [3, 19]: 60
- Plant response rating, Morningglory [4, 11]: 100
- Plant response rating, Morningglory [4, 18]: 100
- Plant response rating, Morningglory [4, 13]: 30
- Plant response rating, Morningglory [4, 19]: 60
- Plant response rating, Pigweed [5, 11]: 80
- Plant response rating, Pigweed [5, 18]: 100
- Plant response rating, Pigweed [5, 13]: 80
- Plant response rating, Pigweed [5, 19]: 100
- Plant response rating, Velvetleaf [6, 11]: 100
- Plant response rating, Velvetleaf [6, 18]: 100
- Plant response rating, Velvetleaf [6, 13]: 70
- Plant response rating, Velvetleaf [6, 19]: 100
- Plant response rating, Wheat [7, 11]: 0
- Plant response rating, Wheat [7, 18]: 0
- Plant response rating, Wheat [7, 13]: 0
- Plant response rating, Wheat [7, 19]: 0
- Plant response rating, Flood, Barnyardgrass [8]: 25
- Plant response rating, Barnyardgrass [8, 15]: 20
- Plant response rating, Flood, Ducksalad [9]: 75
- Plant response rating, Ducksalad [9, 15]: 55
- Plant response rating, Flood, Rice (rice (Oryza sativa)): 20
- Plant response rating, Rice (rice (Oryza sativa); [15]): 15
- Plant response rating, Flood, Sedge, Umbrella [10]: 50
- Plant response rating, Sedge, Umbrella [10, 15]: 45

Compound: Cc1ccc(-n2c(-c3ccccc3)ncc(C(=O)C3=C(O)CCCC3=O)c2=O)cc1C [Compound 32]
- Barnyardgrass plant response rating [1, 20]: 20
- Plant response rating, Barnyardgrass [1, 18]: 80
- Plant response rating, Barnyardgrass [1, 13]: 0
- Plant response rating, Barnyardgrass [1, 19]: 90
- Corn plant response rating (corn (Zea mays); [20]): 0
- Plant response rating, Corn (corn (Zea mays); [18]): 10
- Plant response rating, Corn (corn (Zea mays); [13]): 0
- Plant response rating, Corn (corn (Zea mays); [19]): 0
- Foxtail, Giant plant response rating [2, 20]: 30
- Plant response rating, Foxtail, Giant [2, 18]: 90
- Plant response rating, Foxtail, Giant [2, 13]: 10
- Plant response rating, Foxtail, Giant [2, 19]: 90
- Crabgrass, Large plant response rating [3, 20]: 50
- Plant response rating, Crabgrass, Large [3, 18]: 90
- Plant response rating, Crabgrass, Large [3, 13]: 20
- Plant response rating, Crabgrass, Large [3, 19]: 90
- Morningglory plant response rating [4, 20]: 50
- Plant response rating, Morningglory [4, 18]: 100
- Plant response rating, Morningglory [4, 13]: 0
- Plant response rating, Morningglory [4, 19]: 80
- Pigweed plant response rating [5, 20]: 100
- Plant response rating, Pigweed [5, 18]: 100
- Plant response rating, Pigweed [5, 13]: 30
- Plant response rating, Pigweed [5, 19]: 100
- Velvetleaf plant response rating [6, 20]: 100
- Plant response rating, Velvetleaf [6, 18]: 100
- Plant response rating, Velvetleaf [6, 13]: 20
- Plant response rating, Velvetleaf [6, 19]: 70
- Wheat plant response rating [7, 20]: 0
- Plant response rating, Wheat [7, 18]: 30
- Plant response rating, Wheat [7, 13]: 0
- Plant response rating, Wheat [7, 19]: 20
- Plant response rating, Flood, Barnyardgrass [8]: 40
- Plant response rating, Barnyardgrass [8, 21]: 10
- Plant response rating, Flood, Ducksalad [9]: 95
- Plant response rating, Ducksalad [9, 21]: 75
- Plant response rating, Flood, Rice (rice (Oryza sativa)): 30
- Plant response rating, Rice (rice (Oryza sativa); [21]): 0
- Plant response rating, Flood, Sedge, Umbrella [10]: 90
- Plant response rating, Sedge, Umbrella [10, 21]: 75
